Measured values as given in ChEMBL document CHEMBL1135965, “A novel dicyanotriterpenoid, 2-cyano-3,12-dioxooleana-1,9(11)-dien-28-onitrile, active at picomolar concentrations for inhibition of nitric oxide production” (Bioorg Med Chem Lett, 2002).

Species on record: Mus musculus
Experiment: Inhibitory activity against production of nitric oxide induced by interferon gamma in mouse macrophages
Type: functional, organism-based

CC1(C)CC[C@]2(C(=O)NN)CC[C@]3(C)C(C(=O)C=C4[C@@]5(C)C=C(C#N)C(=O)C(C)(C)[C@@H]5CC[C@]43C)C2C1 (stereo not given in full)
IC50: 0.26 nM

CC1(C)CC[C@]2(C(=O)n3cccn3)CC[C@]3(C)C(C(=O)C=C4[C@@]5(C)C=C(C#N)C(=O)C(C)(C)[C@@H]5CC[C@]43C)C2C1 (stereo not given in full)
IC50: 12 nM

CC1(C)CC[C@]2(C#N)CC[C@]3(C)C(C(=O)C=C4[C@@]5(C)C=C(C(=O)O)C(=O)C(C)(C)[C@@H]5CC[C@]43C)C2C1 (stereo not given in full)
IC50: 1.68 nM

CC1(C)CC[C@]2(C(=O)N3CCCCC3)CC[C@]3(C)C(C(=O)C=C4[C@@]5(C)C=C(C#N)C(=O)C(C)(C)[C@@H]5CC[C@]43C)C2C1 (stereo not given in full)
IC50: 0.95 nM

CC(=O)OC[C@H]1O[C@@H](OC(=O)[C@]23CCC(C)(C)CC2C2C(=O)C=C4[C@@]5(C)C=C(C#N)C(=O)C(C)(C)[C@@H]5CC[C@@]4(C)[C@]2(C)CC3)[C@H](OC(C)=O)[C@H](OC(C)=O)[C@@H]1OC(C)=O (stereo not given in full)
IC50: 0.07 nM

COC(=O)[C@]12CCC(C)(C)CC1C1C(=O)C=C3[C@@]4(C)C=C(C(=O)O)C(=O)C(C)(C)[C@@H]4CC[C@@]3(C)[C@]1(C)CC2 (stereo not given in full)
IC50: 9.55 nM

CCOC(=O)[C@]12CCC(C)(C)CC1C1C(=O)C=C3[C@@]4(C)C=C(C#N)C(=O)C(C)(C)[C@@H]4CC[C@@]3(C)[C@]1(C)CC2 (stereo not given in full)
IC50: 0.8 nM

CC1(C)CC[C@]2(C(=O)O)CC[C@]3(C)[C@H](C(=O)C=C4[C@@]5(C)C=C(C#N)C(=O)C(C)(C)[C@@H]5CC[C@]43C)[C@@H]2C1 [BARDOXOLONE]
IC50: 0.44 nM

CC1(C)CC[C@]2(C(=O)OCc3ccccc3)CC[C@]3(C)C(C(=O)C=C4[C@@]5(C)C=C(C#N)C(=O)C(C)(C)[C@@H]5CC[C@]43C)C2C1 (stereo not given in full)
IC50: 4.35 nM

CC1(C)CC[C@]2(C(=O)NCc3ccccc3)CC[C@]3(C)C(C(=O)C=C4[C@@]5(C)C=C(C#N)C(=O)C(C)(C)[C@@H]5CC[C@]43C)C2C1 (stereo not given in full)
IC50: 9.2 nM

C=CCOC(=O)[C@]12CCC(C)(C)CC1C1C(=O)C=C3[C@@]4(C)C=C(C#N)C(=O)C(C)(C)[C@@H]4CC[C@@]3(C)[C@]1(C)CC2 (stereo not given in full)
IC50: 1.33 nM

CCCCCCNC(=O)[C@]12CCC(C)(C)CC1C1C(=O)C=C3[C@@]4(C)C=C(C#N)C(=O)C(C)(C)[C@@H]4CC[C@@]3(C)[C@]1(C)CC2 (stereo not given in full)
IC50: 14.9 nM

CC1(C)CC[C@]2(C(=O)N3CCOCC3)CC[C@]3(C)C(C(=O)C=C4[C@@]5(C)C=C(C#N)C(=O)C(C)(C)[C@@H]5CC[C@]43C)C2C1 (stereo not given in full)
IC50: 2.4 nM

CC1(C)CC[C@]2(C#N)CC[C@]3(C)C(C(=O)C=C4[C@@]5(C)C=C(C#N)C(=O)C(C)(C)[C@@H]5CC[C@]43C)C2C1 (stereo not given in full) [CDDO-CN]
IC50: 0.0035 nM

CCCN(CCC)C(=O)[C@]12CCC(C)(C)CC1C1C(=O)C=C3[C@@]4(C)C=C(C#N)C(=O)C(C)(C)[C@@H]4CC[C@@]3(C)[C@]1(C)CC2 (stereo not given in full)
IC50: 32.9 nM

CCCNC(=O)[C@]12CCC(C)(C)CC1C1C(=O)C=C3[C@@]4(C)C=C(C#N)C(=O)C(C)(C)[C@@H]4CC[C@@]3(C)[C@]1(C)CC2 (stereo not given in full)
IC50: 1.5 nM

CC1(C)CC[C@]2(C(=O)O)CC[C@]3(C)C(=CC[C@@H]4[C@@]5(C)CC[C@H](O)C(C)(C)[C@@H]5CC[C@]43C)[C@@H]2C1 [OLEANOLIC_ACID]
IC50: > 40000 nM

CC1(C)CC[C@]2(C(=O)O[C@@H]3O[C@H](CO)[C@@H](O)[C@H](O)[C@H]3O)CC[C@]3(C)C(C(=O)C=C4[C@@]5(C)C=C(C#N)C(=O)C(C)(C)[C@@H]5CC[C@]43C)C2C1 (stereo not given in full)
IC50: 10.1 nM

CC1(C)CC[C@]2(C(N)=O)CC[C@]3(C)C(C(=O)C=C4[C@@]5(C)C=C(C#N)C(=O)C(C)(C)[C@@H]5CC[C@]43C)C2C1 (stereo not given in full)
IC50: 0.098 nM

CC1(C)CC[C@]2(C(=O)N3CCC(N4CCCCC4)CC3)CC[C@]3(C)C(C(=O)C=C4[C@@]5(C)C=C(C#N)C(=O)C(C)(C)[C@@H]5CC[C@]43C)C2C1 (stereo not given in full)
IC50: 1 nM

CNC(=O)[C@]12CCC(C)(C)CC1C1C(=O)C=C3[C@@]4(C)C=C(C#N)C(=O)C(C)(C)[C@@H]4CC[C@@]3(C)[C@]1(C)CC2 (stereo not given in full)
IC50: 0.58 nM

CN(C)C(=O)[C@]12CCC(C)(C)CC1C1C(=O)C=C3[C@@]4(C)C=C(C#N)C(=O)C(C)(C)[C@@H]4CC[C@@]3(C)[C@]1(C)CC2 (stereo not given in full)
IC50: 1.55 nM

COC(=O)[C@]12CCC(C)(C)C[C@H]1[C@H]1C(=O)C=C3[C@@]4(C)C=C(C#N)C(=O)C(C)(C)[C@@H]4CC[C@@]3(C)[C@]1(C)CC2 [BARDOXOLONE METHYL]
IC50: 0.11 nM

CC1(C)CC[C@]2(C(=O)N3CCCC3)CC[C@]3(C)C(C(=O)C=C4[C@@]5(C)C=C(C#N)C(=O)C(C)(C)[C@@H]5CC[C@]43C)C2C1 (stereo not given in full)
IC50: 0.8 nM

CCOC(=O)[C@]12CCC(C)(C)CC1C1C(=O)C=C3[C@@]4(C)C=C(C(=O)O)C(=O)C(C)(C)[C@@H]4CC[C@@]3(C)[C@]1(C)CC2 (stereo not given in full)
IC50: 7.93 nM

CC1(C)CC[C@]2(C(=O)Nc3ccccc3)CC[C@]3(C)C(C(=O)C=C4[C@@]5(C)C=C(C#N)C(=O)C(C)(C)[C@@H]5CC[C@]43C)C2C1 (stereo not given in full)
IC50: 28.6 nM

CCCCOC(=O)[C@]12CCC(C)(C)CC1C1C(=O)C=C3[C@@]4(C)C=C(C#N)C(=O)C(C)(C)[C@@H]4CC[C@@]3(C)[C@]1(C)CC2 (stereo not given in full)
IC50: 6.65 nM

CC1(C)CC[C@]2(C(=O)n3ccnc3)CC[C@]3(C)[C@H](C(=O)C=C4[C@@]5(C)C=C(C#N)C(=O)C(C)(C)[C@@H]5CC[C@]43C)[C@@H]2C1
IC50: 0.014 nM

CCCCCCCCOC(=O)[C@]12CCC(C)(C)CC1C1C(=O)C=C3[C@@]4(C)C=C(C#N)C(=O)C(C)(C)[C@@H]4CC[C@@]3(C)[C@]1(C)CC2 (stereo not given in full)
IC50: 60.4 nM

CC1(C)CC[C@]2(C(=O)OCC3CC3)CC[C@]3(C)C(C(=O)C=C4[C@@]5(C)C=C(C#N)C(=O)C(C)(C)[C@@H]5CC[C@]43C)C2C1 (stereo not given in full)
IC50: 4.45 nM
